Test results published in patent publication US20200299328A1, “POLYPEPTIDE WITH FUNCTION OF INHIBITING ABETA 42 PROTEIN AGGREGATION AND USE THEREOF, AND GENE ENCODING THE POLYPEPTIDE” (SOUTH CHINA UNIVERSITY OF TECHNOLOGY, priority 2018, published 2020).

System: Aβ42 protein aggregation in HEK-293-Aβ42-mCherry cells
Assay: Activity experiment of inhibiting Aβ42 protein aggregation in vitro (IncuCyte Zoom live cell imaging, tetracycline induction)
Type: cell-based
Settings: compared with model group, 72 hours after tetracycline, p<0.01 (FIG. 5)
Text: In the specific embodiments, in an application process of the polypeptide with the function of inhibiting Aβ42 protein aggregation according to the present invention, a mechanism of inhibiting AD senile plaque by the polypeptide is first researched through a visual in-vitro cell model test. Specifically, an amino acid sequence of a core component of senile plaque—an Aβ42 protein (the 22nd amino acid in a sequence of 42 amino acids—glutamic acid is mutated into glycine) is stably transferred into HEK-293 cells, so that it is stably expressed in the HEK-293 cells to form a cell model of abnormal Aβ protein aggregation, and then tetracycline is added to induce the Aβ protein to form a red fluorescent protein and emit red fluorescent light for positioning and quantifying the expression of the Aβ42 protein; and then, the polypeptide with the function of inhibiting Aβ42 protein aggregation according to the present invention is added, and a HEK293 cell model transfected with an Aβ42-red fluorescent labeling gene is used for evaluation, thus proving that the polypeptide has a remarkable activity of inhibiting Aβ42 protein aggregation. […]

Substance: Pro-Pro-Lys-Asn-Trp (PPLAT) [PW-5]
- Aβ42 protein aggregation rate (PW-5 high-dose group 0.5 mM, effect more significant than low-dose group): significantly reduced
- Aβ42 protein aggregation rate (PW-5 low-dose group 0.05 mM): significantly reduced
